Test results taken from publication doi:10.1101/577908v1, “Host metabolic reprogramming of Pseudomonas aeruginosa by phage-based quorum sensing modulation” (biorxiv, 2019).

What was measured:
Qst = molecular target: T1, Qst (Pseudomonas phage LUZ19, UniProt A9J759); assay: DTNB end-point assay of CoA release; 1H-NMR; format: biochemical; conditions: 1 mM acetyl-CoA, 2 mM 3-methyl-2-oxobutanoic acid, MgCl2, pH 7.5, 37 °C
T1 construct: gene gp4; His-tagged (pEXP5-CT/TOPO), expressed in E. coli BL21(DE3), HisTrap purified; predicted 13 kDa
T1 sequence (A9J759 1-122): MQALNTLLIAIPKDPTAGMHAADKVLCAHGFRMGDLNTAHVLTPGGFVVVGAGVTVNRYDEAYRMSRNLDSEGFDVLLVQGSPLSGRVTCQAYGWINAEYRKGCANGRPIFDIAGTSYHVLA

PA1217 = molecular target: T2, PA1217 (Pseudomonas aeruginosa, UniProt Q9I4C1); assay: DTNB end-point assay of CoA release; 1H-NMR; format: biochemical; conditions: 1 mM acetyl-CoA, 2 mM 3-methyl-2-oxobutanoic acid, MgCl2, pH 7.5, 37 °C
T2 construct: full-length, GST-tagged (pGEX-6P-1), expressed in E. coli BL21(DE3), GSTrap purified; tag removal not mentioned
T2 sequence (Q9I4C1 1-455): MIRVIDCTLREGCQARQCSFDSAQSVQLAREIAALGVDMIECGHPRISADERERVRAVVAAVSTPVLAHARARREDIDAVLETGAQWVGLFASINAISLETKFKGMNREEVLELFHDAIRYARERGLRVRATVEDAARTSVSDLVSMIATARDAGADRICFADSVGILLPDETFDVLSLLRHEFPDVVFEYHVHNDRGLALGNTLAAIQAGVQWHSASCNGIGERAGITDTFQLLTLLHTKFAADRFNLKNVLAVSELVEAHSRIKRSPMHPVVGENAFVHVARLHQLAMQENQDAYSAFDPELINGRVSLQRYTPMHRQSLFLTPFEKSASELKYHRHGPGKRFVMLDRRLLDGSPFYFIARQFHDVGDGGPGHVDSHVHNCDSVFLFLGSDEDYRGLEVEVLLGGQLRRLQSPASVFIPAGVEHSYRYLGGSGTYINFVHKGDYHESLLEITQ

CC(=O)SCCNC(=O)CCNC(=O)[C@H](O)C(C)(C)COP(=O)(O)OP(=O)(O)OC[C@H]1O[C@@H](n2cnc3c(N)ncnc32)[C@H](O)[C@@H]1OP(=O)(O)O [acetyl-CoA]
DTNB end-point assay of CoA release; 1H-NMR (Qst): Qst was also able to consume acetyl-CoA
DTNB end-point assay of CoA release; 1H-NMR (PA1217): products were only formed by LeuA, while PA1217 merely consumed acetyl-CoA
